Earlier results as cited in article PMC6606825 (Journal of Ginseng Research, 2018).

Tests used:
[1] = test system: cytochrome P450 enzymes (CYPs); conditions: in vitro; ref unpublished; cited from earlier work
[2] = PK data in animals and healthy individuals; cited from earlier work

SMILES: CC(C)=CCC[C@](C)(O[C@@H]1O[C@H](CO)[C@@H](O)[C@H](O)[C@H]1O)[C@H]1CC[C@]2(C)[C@@H]1[C@H](O)C[C@@H]1[C@@]3(C)CC[C@H](O)C(C)(C)[C@@H]3CC[C@]12C [Ginsenoside compound K, 20-O-beta-D-glucopyranosyl-20(S)-protopanaxadiol]
- effects of CYPs on CK [1]: minimal effects
- oral bioavailability [2]: poor oral bioavailability
